One series deals with IL-8. In words: Anti-inflammatory assay, IL-8 in LPS-stimulated THP-1 cells (CBA). Format: cell-based, human. The settings on record: 2 and 4 µg/mL, 24 h. As to the method:
(§1) For this assay, THP-1 (BCRJ cód. 0234) cells were cultured in Roswell Park Memorial Institute (RPMI-1640, Sigma-Aldrich; Saint Louis, MO, USA) media supplemented with 2 mM L-glutamine, 1 mM sodium pyruvate, 1.50 g/L of sodium bicarbonate, and 10% fetal bovine serum. For obtaining Macrophage-like cells, 250,000 cells per well were plated in a 24-well cell culture plate. A total of 20 ng/mL of Forbol 12-miristato-13-acetato (PMA) was added to each well, and the cells were incubated for 48 h at 37 °C with 5% CO2. After the 48 h, the wells were washed with 1X PBS, and fresh RPMI-1640 media was added. The cells were then incubated for 24 h at 37 °C and 5% CO2. For the cell’s stimulations, after the 24 h, the well was washed with PBS and fresh RPMI1640 media without fetal bovine serum added. For the positive controls of the assay, 3 wells were stimulated with LPS (1 ng/µL) diluted in the same volume and media used for the drugs stimulation. Two different concentrations (2 and 4 µg/mL) were evaluated for each molecule, which were determined to be non-cytotoxic through a cell viability assay. After a 24 h period, the supernatant was removed and used in the cytokine quantification assay. A kit for inflammatory cytokines, BD® Cytometric Bead Array CBA Human Inflammatory, was employed for this assay, containing the following human cytokines: IL-8, IL-1β, IL-6, and TNF. […]

Series [1] can be described thus: Partition coefficient (Log P), OECD 117 HPLC method.
In the next series the test system is SCC-25 cells. In words: MTT cytotoxicity assay on SCC-25 cells. Format: cell-based, human. The settings on record: Homo sapiens, SCC-25; MTT, 24 h incubation, mean SEM of three experiments. The text has this: (§2) The SCC-25 (ATCC® CRL-1628™), Detroit-562 (ATCC® CCL-138™), and THP-1 (ATCC® TIB-202™) cells were purchased from Rio de Janeiro Cell Bank (Duque de Caxias, Brazil), and NOK-si was kindly provided by Prof. Carlos Rossa from the School of Dentistry—UNESP. All the cells were cultivated according to standard conditions. Human colorectal adenocarcinoma HCT116 cell lines (ATCC® CCL-247™) expressing p53 and its p53-null isogenic derivative (HCT116 p53^−/−) were provided by B. Vogelstein (The Johns Hopkins Kimmel Cancer Center, Baltimore, MD, USA).
(§3) Cells (NOK-si, SCC-25, and Detroit-562) were grown in a DMEM medium (Dulbecco’s Modified Eagle Medium), supplemented according to the needs of each lineage, as recommended by its cell banks, with 2 mM L-glutamine, 10% or 20% fetal bovine serum (FBS), 1% antibiotic–antimycotic solution (5 mg/mL penicillin, 5 mg/mL streptomycin, and 10 mg/mL neomycin), 4.5 g/L of glucose, and 3.7 g/L of sodium bicarbonate (NaHCO3). All cell lines were cultured in flasks at 37 °C in 5% carbon dioxide (CO2) and 95% of relative humidity. The assays were conducted between the third- and the seventh-cell passage, with sub-cultures every 3–4 days to maintain exponential growth. The cell viability was checked using the trypan blue dye exclusion assay for all experiments, where over 95% of the cells were viable at the beginning of the tests. NOK-si, SCC-25, and Detroit-562 were initially thawed and cultured in 25 cm^2 cell culture flasks. Cell growth was monitored using a microscope, and the culture medium was changed periodically. Upon reaching confluency, cell dissociation was achieved by adding 5 mL of trypsin (Sigma-Aldrich, St Louis, MO, USA) and incubating the bottles in a CO2 incubator for 10 min. Subsequently, the cells were transferred to 15 mL Falcon tubes and centrifuged at 2000 rpm for 10 min. Cell counting was performed using a Countess II FL automated cell counter (ThermoFischer, Waltham, MA, USA). The cells were seeded at a density of 30,000 cells per well in 96-well plates. The plates were then incubated at 37 °C in 5% CO2 for 24 h. Following this, test compounds were incubated for another 24 h at 10 different concentrations: 50, 25, 12.5, 6.25, 3.12, 1.56, 0.78, 0.39, 0.19, and 0.097 µg/mL. After the specified time, MTT reagent (3 mg/mL) (Sigma-Aldrich, St Louis, MO, USA) dissolved in phenol-free RPMI 1640 was added and incubated for 4 h. The formed MTT crystals were solubilized using 2-propanol P.A. (Sigma-Aldrich, St Louis, MO, USA) with agitation. Absorbance was read at 562 nm using an EZ Read 400 microplate reader (Biochrom, Cambridge, UK) and ADAP 2.0 Biochrom software (version 2.0). IC50 values and graphs were calculated using Excel and Prism software (version 10.4.1). The MTT assay results were evaluated for normality using the Shapiro–Wilk test, followed by one-way ANOVA with Tukey’s post hoc test at a significance level of 5%.

The next series relates to NOK-si cells. Briefly: MTT cytotoxicity assay on NOK-si normal oral keratinocytes. Type of series: cell-based. The settings on record: 24 h incubation.
From the text: as §2, §3
In general terms: Tetrazolium dyes change colour on reduction, which living cells bring about.

The next series relates to IL-1β. Briefly: Anti-inflammatory assay, IL-1β in LPS-stimulated THP-1 cells (CBA). Type of series: cell-based, human. The settings on record: 2 and 4 µg/mL, 24 h. As for the experimental part: as §1

The results in this text go back to article PMC12301034, “Design and Synthesis of Boronic Chalcones with Dual Anticancer and Anti-Inflammatory Activity” (Molecules, 2025).

A word on the chromatographic logP: it is lipophilicity estimated from chromatographic retention. Higher therefore signals a more lipophilic compound. Broadly, the IC50 is the concentration that inhibits the measured activity by half.

For `COc1cccc(C(=O)/C=C/c2cccc(B(O)O)c2)c1` [Compound 5, (E)-(3-(3-(3-methoxyphenyl)-3-oxoprop-1-en-1-yl)phenyl)boronic acid], the “reduction of IL-8 levels” value in the series on IL-8 is “effectively reduced cytokine levels”. The compound also gave a chromatographic logP in series [1] of 2.92. The IC50 with SCC-25 cells turned out to be 17.9 ± 0.35 µM. Besides, the “NOK-si IC50” value with NOK-si cells was 58.9 ± 10.63 µM. For the same compound, the CC50 in the series with NOK-si cells (Keratinocyte, read-out: NOK-si IC50) was determined as 58.9 µM. The “reduction of IL-1β levels” value in the series on IL-1β is “comparable efficacy in reducing cytokine levels relative to LPS-stimulated cells”.
